From patent US8796259B2, “N3-heteroaryl substituted triazoles and N5-heteroaryl substituted triazoles useful as axl inhibitors” (Rigel Pharmaceuticals, Inc., priority 2006, dated 2014)

Target: T1, Axl (Homo sapiens, UniProt P30530)
T1 construct: endogenous in cells; host or cells: HeLa cells
T1 sequence (P30530 26-894): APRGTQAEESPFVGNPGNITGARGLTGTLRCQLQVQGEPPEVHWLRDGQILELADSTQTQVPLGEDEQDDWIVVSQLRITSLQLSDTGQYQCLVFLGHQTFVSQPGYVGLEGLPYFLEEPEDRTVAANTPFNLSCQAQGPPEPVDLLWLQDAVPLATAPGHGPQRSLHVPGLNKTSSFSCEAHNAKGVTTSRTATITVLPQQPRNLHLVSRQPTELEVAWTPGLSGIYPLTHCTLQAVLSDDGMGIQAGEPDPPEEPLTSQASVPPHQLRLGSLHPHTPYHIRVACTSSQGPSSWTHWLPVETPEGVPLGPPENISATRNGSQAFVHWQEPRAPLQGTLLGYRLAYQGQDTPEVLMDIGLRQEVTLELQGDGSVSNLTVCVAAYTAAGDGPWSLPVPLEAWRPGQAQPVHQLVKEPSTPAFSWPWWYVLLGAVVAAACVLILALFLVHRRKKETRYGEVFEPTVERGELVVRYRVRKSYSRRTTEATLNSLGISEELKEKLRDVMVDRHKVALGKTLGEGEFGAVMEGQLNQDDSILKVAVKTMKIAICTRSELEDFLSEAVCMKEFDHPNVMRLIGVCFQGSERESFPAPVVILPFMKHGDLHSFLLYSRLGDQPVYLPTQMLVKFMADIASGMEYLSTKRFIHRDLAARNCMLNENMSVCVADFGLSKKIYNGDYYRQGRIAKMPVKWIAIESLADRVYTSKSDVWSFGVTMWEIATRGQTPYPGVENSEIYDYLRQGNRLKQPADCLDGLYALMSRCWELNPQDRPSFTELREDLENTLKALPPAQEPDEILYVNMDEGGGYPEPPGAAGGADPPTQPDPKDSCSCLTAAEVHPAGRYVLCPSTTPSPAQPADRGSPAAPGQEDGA
Experiment: Phospho-Akt in-cell Western assay (inhibition of Axl activity, Axl-antibody cross-linking stimulation)
Type: cell-based
Conditions: Hela cells, phospho-Akt readout; compounds of formula (Ia), Table 1
Summary of the method: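 HeLa cells on poly-L-lysine were starved 24 h in 0.5% FCS/DMEM with 500 ng/mL Axl/Fc, pre-treated with compound 1 h at 37 °C, then stimulated 5 min by cross-linked mouse anti-Axl/biotin anti-mouse antibody clusters. After formaldehyde fixation, phospho-Akt was detected by rabbit anti-phospho-Akt and HRP secondary with chemiluminescence read-out.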

With `Cc1csc2c(-n3nc(Nc4cnc(N5CCN([C@H]6CC7CCC6C7)CC5)c(Cl)c4)nc3N)nc(Cl)nc12` (stereo partly drawn) [compound 109, 1-(2-chloro-7-methylthieno [3,2-d]pyrimidin-4-yl)-N^3-(2-(4-(2S)-bicyclo[2.2.1]heptan-2-ylpiperazin-1-yl)-3-chloropyridin-5-yl)-1H-1,2,4-triazole-3,5-diamine] the IC50 was 1 to 10 µM.
`Cc1csc2c(-n3nc(Nc4cnc(N5CCN([C@H]6CC7CCC6C7)CC5)c(Cl)c4)nc3N)ncnc12` (stereo partly drawn) [compound 110, 1-(7-methylthieno [3,2-d]pyrimidin-4-yl)-N^3-(2-(4-(2S)-bicyclo[2.2.1]heptan-2-ylpiperazin-1-yl)-3-chloropyridin-5-yl)-1H-1,2,4-triazole-3,5-diamine] gave an IC50 of 10 to 20 µM.
`Cc1cc(Nc2nc(N)n(-c3ncnc4c(C)csc34)n2)cnc1N1CCN([C@H]2CC3CCC2C3)CC1` (stereo partly drawn) [compound 111, 1-(7-methylthieno [3,2-d]pyrimidin-4-yl)-N^3-(2-(4-(2S)-bicyclo[2.2.1]heptan-2-ylpiperazin-1-yl)-3-methylpyridin-5-yl)-1H-1,2,4-triazole-3,5-diamine] gave an IC50 of under 1 µM.
With `Cc1cc(Nc2nc(N)n(-c3nnc(C)c4ccsc34)n2)cnc1N1CCN([C@H]2C[C@@H]3CC[C@H]2C3)CC1` [compound 112, 1-(4-methylthieno [3,2-d]pyridazine-7-yl)-N^3-(2-(4-(1S,2S,4R)-bicyclo[2.2.1]heptan-2-ylpiperazin-1-yl)-3-methylpyridin-5-yl)-1H-1,2,4-triazole-3,5-diamine] the IC50 was over 20 µM.
For `COc1cc2ncnc(-n3nc(Nc4ccc(C=CCN5CCN(C(C)C)CC5)nc4)nc3N)c2cc1OC` [compound 113, 1-(6,7-dimethoxy-quinazoline-4-yl)-N^3-(2-(3-(4-isopropyl-piperazin-1-yl)propen-1-yl)pyridine-5-yl)-1H-1,2,4-triazole-3,5-diamine], the IC50 was under 1 µM.
In the case of `COc1cc2ncnc(-n3nc(Nc4ccc(N5CCN(CC6CC6)[C@@H](C)C5)nc4)nc3N)c2cc1OC` [compound 114, 1-(6,7-dimethoxy-quinazoline-4-yl)-N^3-(2-(4-cyclo-propylmethyl-3-(S)-methyl-piperazin-1-yl)pyridin-5-yl)-1H-1,2,4-triazole-3,5-diamine], the IC50 is reported as under 1 µM.
With `Cc1csc2c(-n3nc(Nc4ccc(N5CCN(CC6CC6)[C@@H](C)C5)nc4)nc3N)nc(Cl)nc12` [compound 115, 1-(2-chloro-7-methyithieno [3,2-d]pyrimidin-4-yl)-N^3-(2-(4-cyclopropyl-methyl-3-(S)-methyl-piperazin-1-yl)pyridin-5-yl)-1H-1,2,4-triazole-3,5-diamine] the IC50 was 1 to 10 µM.
With `Cc1csc2c(-n3nc(Nc4ccc(N5CCN(CC6CC6)[C@@H](C)C5)nc4)nc3N)ncnc12` [compound 116, 1-(7-methyl-thieno[3,2-d]pyrimidin-4-yl)-N^3-(2-(4-cyclo-propylmethyl-3-(S)-methyl-piperazin-1-yl)pyridin-5-yl)-1H-1,2,4-triazole-3,5-diamine] the IC50 was under 1 µM.
For `Cc1csc2c(-n3nc(Nc4ccc(N5CCN(CC6CC6)[C@@H](C)C5)nc4)nc3N)nc(Cl)nc12` [compound 117, 1-(2-chloro-7-methylthieno [3,2-d]pyrimidin-4-yl)-N^3-(2-(4-cyclopropyl-methyl-3-(S)-methyl-piperazin-1-yl)pyridin-5-yl)-1H-1,2,4-triazoie-3,5-diamine], the IC50 was under 1 µM.
For `Cc1csc2c(-n3nc(Nc4ccc(Br)nc4)nc3N)ncnc12` [compound 118, 1-(7-methylthieno [3,2-d]pyrimidin-4-yl)-N^3-(2-bromopyridin-5-yl)-1H-1,2,4-triazole-3,5-diamine], the IC50 was over 20 µM.
Work on `Cc1csc2c(-n3nc(Nc4ccc(C=CCN5CCCC5)nc4)nc3N)ncnc12` [compound 119, 1-(7-methylthieno [3,2-d]pyrimidin-4-yl)-N^3-(2-(3-(pyrrolidin-1-yl)propen-1-yl)pyridin-5-yl)-1H-1,2,4-triazole-3,5-diamine] yielded an IC50 of under 1 µM.
Compound `Cc1csc2c(-n3nc(Nc4ccc(/C=C/CN5CCC(N(C)C)C5)nc4)nc3N)ncnc12` (stereo not drawn) [compound 120, 1-(7-methylthieno [3,2-d]pyrimidin-4-yl)-N^3-(2-(3-(3-dimethyl-amino-pyrrolidin-1-yl)propen-1-yl)pyridin-5-yl)-1H-1,2,4-triazole-3,5-diamine] has an IC50 of under 1 µM.
With `CCN(CC)C1CCN(C/C=C/c2ccc(Nc3nc(N)n(-c4ncnc5c(C)csc45)n3)cn2)C1` (stereo not drawn) [compound 121, 1-(7-methylthieno [3,2-d]pyrimidin-4-yl)-N^3-(2-(3-(3-diethyl-amino-pyrrolidin-1-yl)propen-1-yl)pyridin-5-yl)-1H-1,2,4-triazole-3,5-diamine] the IC50 was under 1 µM.
`Cc1csc2c(-n3nc(Nc4ccc(C=CCN5CCC(N6CCCC6)CC5)nc4)nc3N)ncnc12` [compound 122, 1-(7-methylthieno [3,2-d]pyrimidin-4-yl)-N^3-(2-(3-(4-pyrrolidin-1-yl-piperidin-1-yl)propen-1-yl)pyridin-5-yl)-1H-1,2,4-triazole-3,5-diamine] showed an IC50 of under 1 µM.
`Cc1csc2c(-n3nc(Nc4ccc(C=CCN5CCN(C)CC5)nc4)nc3N)ncnc12` [compound 123, 1-(7-methylthieno [3,2-d]pyrimidin-4-yl)-N^3-(2-(3-(4-methyl-piperazin-1-yl)propen-1-yl)pyridin-5-yl)-1H-1,2,4-triazole-3,5-diamine] was tested, and the IC50 was under 1 µM.
For `Cc1csc2c(-n3nc(Nc4ccc(C=CCN5CCN(C(C)C)CC5)nc4)nc3N)ncnc12` [compound 124, 1-(7-methylthieno [3,2-d]pyrimidin-4-yl)-N^3-(2-(3-(4-isopropyl-piperazin-1-yl)propen-1-yl)pyridin-5-yl)-1H-1,2,4-triazole-3,5-diamine], the IC50 was under 1 µM.
In the case of `Cc1csc2c(-n3nc(Nc4ccc(C=CCN5CCN(C6CCCC6)CC5)nc4)nc3N)ncnc12` [compound 125, 1-(7-methylthieno [3,2-d]pyrimidin-4-yl)-N^3-(2-(3-(4-cyclopentyl-piperazin-1-yl)propen-1-yl)pyridin-5-yl)-1H-1,2,4-triazole-3,5-diamine], the IC50 is reported as under 1 µM.
With `Cc1csc2c(-n3nc(Nc4ccc(C=CCN5CCOCC5)nc4)nc3N)ncnc12` [compound 126, 1-(7-methylthieno [3,2-d]pyrimidin-4-yl)-N^3-(2-(3-(morpholin-4-yl)propen-1-yl)pyridin-5-yl)-1H-1,2,4-triazole-3,5-diamine] the IC50 was under 1 µM.
`Cc1csc2c(-n3nc(Nc4ccc(C=CCN5CCCCC5)nc4)nc3N)ncnc12` [compound 127, 1-(7-methylthieno [3,2-d]pyrimidin-4-yl)-N^3-(2-(3-(piperidin-1-yl)propen-1-yl)pyridin-5-yl)-1H-1,2,4-triazole-3,5-diamine] was tested, and the IC50 was under 1 µM.
Compound `Cc1csc2c(-n3nc(Nc4ccc(C=CCN5CCC(N6CCN(C)CC6)CC5)nc4)nc3N)ncnc12` [compound 128, 1-(7-methylthieno [3,2-d]pyrimidin-4-yl)-N^3-(2-(3-(4-(4-methyl-piperazin-1-yl)piperidin-1-yl)propen-1-yl)pyridin-5-yl)-1H-1,2,4-triazole-3,5-diamine] has an IC50 of under 1 µM.
In the case of `Cc1csc2c(-n3nc(Nc4ccc(C=CCN5CCC(N6CCCCC6)CC5)nc4)nc3N)ncnc12` [compound 129, 1-(7-methylthieno [3,2-d]pyrimidin-4-yl)-N^3-(2-(3-(4-piperidin-1-ylpiperidin-1-yl)propen-1-yl)pyridin-5-yl)-1H-1,2,4-triazole-3,5-diamine], the IC50 is reported as under 1 µM.
